How the values were obtained:
Type in all cases: cell-based
[1] = biological target: T1, human TLR7 (Homo sapiens, UniProt Q9NYK1); assay: TLR7 inhibition reporter assay (HEK-Blue cells, SEAP reporter); conditions: HEK-Blue cells overexpressing human TLR7; stimulated with gardiquimod 7.5 μM; 22 hour incubation; SEAP readout
T1 sequence (Q9NYK1 27-1049): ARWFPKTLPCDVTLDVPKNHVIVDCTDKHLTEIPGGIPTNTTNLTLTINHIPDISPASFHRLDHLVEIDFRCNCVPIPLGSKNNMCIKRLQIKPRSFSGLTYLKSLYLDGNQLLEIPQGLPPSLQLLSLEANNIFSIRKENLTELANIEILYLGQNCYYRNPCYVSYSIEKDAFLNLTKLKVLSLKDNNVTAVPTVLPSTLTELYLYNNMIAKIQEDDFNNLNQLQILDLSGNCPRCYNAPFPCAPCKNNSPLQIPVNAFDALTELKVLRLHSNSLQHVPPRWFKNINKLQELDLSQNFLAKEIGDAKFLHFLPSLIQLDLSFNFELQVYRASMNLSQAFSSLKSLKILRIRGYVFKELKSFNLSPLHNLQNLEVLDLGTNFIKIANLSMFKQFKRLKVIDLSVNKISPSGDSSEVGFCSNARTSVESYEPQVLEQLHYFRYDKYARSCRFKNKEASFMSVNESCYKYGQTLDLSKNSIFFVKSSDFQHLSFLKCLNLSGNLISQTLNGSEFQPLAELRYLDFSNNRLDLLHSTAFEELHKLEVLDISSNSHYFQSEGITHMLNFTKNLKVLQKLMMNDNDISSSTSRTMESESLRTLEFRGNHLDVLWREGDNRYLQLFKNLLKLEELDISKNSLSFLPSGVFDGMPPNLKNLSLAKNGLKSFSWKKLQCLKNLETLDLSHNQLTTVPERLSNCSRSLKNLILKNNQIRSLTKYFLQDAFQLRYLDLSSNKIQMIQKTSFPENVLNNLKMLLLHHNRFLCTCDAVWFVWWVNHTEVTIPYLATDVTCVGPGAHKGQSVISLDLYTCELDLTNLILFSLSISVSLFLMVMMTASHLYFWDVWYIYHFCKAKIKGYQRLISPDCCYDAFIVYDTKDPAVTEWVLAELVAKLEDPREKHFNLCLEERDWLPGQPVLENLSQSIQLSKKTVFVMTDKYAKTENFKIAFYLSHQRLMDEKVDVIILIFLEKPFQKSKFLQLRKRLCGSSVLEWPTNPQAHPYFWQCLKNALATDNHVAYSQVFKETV
In short: (§1)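 HEK-Blue cells with an NF-κB/AP-1-driven SEAP reporter were pre-treated 30 min at room temperature with compound (0.05 nM–50 μM), then stimulated with gardiquimod 7.5 μM (TLR7), R848 15.9 μM (TLR8) or ODN2006 5 nM (TLR9). After 22 h at 37 °C, SEAP was read; % inhibition was referenced to agonist+DMSO and known-inhibitor wells.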

[2] = biological target: T2, human TLR9 (Homo sapiens, UniProt Q9NR96); assay: TLR9 inhibition reporter assay (HEK-Blue cells, SEAP reporter); conditions: HEK-Blue cells overexpressing human TLR9; stimulated with ODN2006 5 nM; 22 hour incubation; SEAP readout
T2 sequence (Q9NR96 26-1032): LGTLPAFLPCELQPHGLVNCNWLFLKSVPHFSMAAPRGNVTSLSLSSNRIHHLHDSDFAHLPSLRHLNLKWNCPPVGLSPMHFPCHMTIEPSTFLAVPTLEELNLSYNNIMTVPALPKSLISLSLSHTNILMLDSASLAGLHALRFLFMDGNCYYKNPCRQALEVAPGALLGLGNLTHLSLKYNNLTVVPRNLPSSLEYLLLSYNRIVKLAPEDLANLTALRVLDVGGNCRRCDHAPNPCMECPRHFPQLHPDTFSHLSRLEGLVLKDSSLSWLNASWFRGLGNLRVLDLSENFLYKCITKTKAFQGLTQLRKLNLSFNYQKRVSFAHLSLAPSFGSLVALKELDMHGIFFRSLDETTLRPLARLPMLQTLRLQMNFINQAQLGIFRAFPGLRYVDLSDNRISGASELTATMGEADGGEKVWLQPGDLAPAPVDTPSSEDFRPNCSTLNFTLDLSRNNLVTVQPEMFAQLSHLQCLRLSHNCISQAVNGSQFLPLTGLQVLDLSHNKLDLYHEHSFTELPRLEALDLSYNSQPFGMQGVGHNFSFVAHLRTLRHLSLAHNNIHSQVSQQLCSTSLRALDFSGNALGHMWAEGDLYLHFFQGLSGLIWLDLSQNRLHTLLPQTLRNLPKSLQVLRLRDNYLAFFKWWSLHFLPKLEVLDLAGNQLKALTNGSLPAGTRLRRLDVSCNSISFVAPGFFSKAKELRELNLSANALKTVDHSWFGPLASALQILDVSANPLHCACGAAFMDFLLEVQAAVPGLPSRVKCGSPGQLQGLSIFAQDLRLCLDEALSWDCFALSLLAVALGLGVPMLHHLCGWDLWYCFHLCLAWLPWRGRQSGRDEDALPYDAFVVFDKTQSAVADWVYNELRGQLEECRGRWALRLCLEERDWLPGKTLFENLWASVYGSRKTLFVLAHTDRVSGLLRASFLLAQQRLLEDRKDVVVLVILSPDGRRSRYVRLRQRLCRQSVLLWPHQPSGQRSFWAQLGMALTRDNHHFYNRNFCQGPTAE
In short: as §1

[3] = biological target: T3, human TLR8 (Homo sapiens, UniProt Q9NR97); assay: TLR8 inhibition reporter assay (HEK-Blue cells, SEAP reporter); conditions: HEK-Blue cells overexpressing human TLR8; stimulated with R848 15.9 μM; 22 hour incubation; SEAP readout
T3 sequence (Q9NR97 27-1041): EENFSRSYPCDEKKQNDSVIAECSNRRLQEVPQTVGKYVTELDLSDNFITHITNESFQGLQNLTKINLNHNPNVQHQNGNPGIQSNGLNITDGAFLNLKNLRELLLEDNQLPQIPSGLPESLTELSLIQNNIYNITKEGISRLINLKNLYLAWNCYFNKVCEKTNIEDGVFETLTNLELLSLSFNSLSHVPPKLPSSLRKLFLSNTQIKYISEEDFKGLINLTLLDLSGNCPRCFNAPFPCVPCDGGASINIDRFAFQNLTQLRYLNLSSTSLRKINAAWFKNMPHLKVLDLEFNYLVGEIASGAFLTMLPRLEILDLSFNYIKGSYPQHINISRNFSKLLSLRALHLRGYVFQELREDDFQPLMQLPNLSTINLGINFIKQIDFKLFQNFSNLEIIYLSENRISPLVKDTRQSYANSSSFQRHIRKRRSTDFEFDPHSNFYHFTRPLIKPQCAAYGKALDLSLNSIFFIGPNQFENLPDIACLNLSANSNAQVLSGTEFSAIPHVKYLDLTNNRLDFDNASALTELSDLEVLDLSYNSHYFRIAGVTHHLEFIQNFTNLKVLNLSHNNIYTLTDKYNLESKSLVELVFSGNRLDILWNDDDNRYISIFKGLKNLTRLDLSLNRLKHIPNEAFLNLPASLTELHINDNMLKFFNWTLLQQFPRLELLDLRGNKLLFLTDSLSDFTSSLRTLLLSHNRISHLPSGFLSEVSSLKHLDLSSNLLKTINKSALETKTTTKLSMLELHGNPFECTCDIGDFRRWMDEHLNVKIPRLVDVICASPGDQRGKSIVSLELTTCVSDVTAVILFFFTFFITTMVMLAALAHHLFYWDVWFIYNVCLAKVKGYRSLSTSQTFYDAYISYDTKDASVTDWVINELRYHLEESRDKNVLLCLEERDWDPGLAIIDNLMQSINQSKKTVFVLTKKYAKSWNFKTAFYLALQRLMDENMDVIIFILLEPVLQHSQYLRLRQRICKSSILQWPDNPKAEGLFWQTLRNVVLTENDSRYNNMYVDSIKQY
In short: as §1

Structure (SMILES)	IC50 [1]	IC50 [2]	IC50 [3]
CC(C)N1C2CCC1CC(N1CCC(c3cc(F)c4nc(-c5ccc(S(C)(=O)=O)cc5)cn4c3)CC1)C2 (single isomer, unassigned) [Example 68, 8-fluoro-6-(1-(8-isopropyl-8-azabicyclo[3.2.1]octan-3-yl)piperidin-4-yl)-2-(4-(methylsulfonyl)phenyl)imidazo[1,2-a]pyridine]	8200 nM	110 nM	> 50000 nM
COc1ccc(-c2cn3cc(C4C[C@H]5CC[C@@H](C4)N5C4CCN(CC(C)C)CC4)cc(C)c3n2)cc1OC (mixture of isomers) [Example 27, 2-(3,4-dimethoxyphenyl)-6-(8-(1-isobutylpiperidin-4-yl)-8-azabicyclo[3.2.1]octan-3-yl)-8-methylimidazo[1,2-a]pyridine]	1400 nM	17 nM	> 50000 nM
Cc1cc(C2CC3CCC(C2)N3C2CCN(C(C)C)CC2)cn2nc(-c3ccc(S(C)(=O)=O)cc3)nc12 (stereo not drawn) [Example 160, 6-(8-(1-isopropylpiperidin-4-yl)-8-azabicyclo[3.2.1]octan-3-yl)-8-methyl-2-(4-(methylsulfonyl)phenyl)-[1,2,4]triazolo[1,5-a]pyridine]	6900 nM	44 nM	> 50000 nM
COc1ccc(-c2cn3cc(C4CC5CCC(C4)N5C4CCN(C5CC5)CC4)cc(C)c3n2)cc1OC (single isomer, unassigned) [Example 25, 6-(8-(1-cyclopropylpiperidin-4-yl)-8-azabicyclo[3.2.1]octan-3-yl)-2-(3,4-dimethoxyphenyl)-8-methylimidazo[1,2-a]pyridine]	3500 nM	16 nM	20000 nM
COc1ccc(-c2cn3cc(C4CCN(C5CC6CCC(C5)N6C(C)C)CC4)cc(C)c3n2)cc1OC (single isomer, unassigned) [Example 22, 2-(3,4-dimethoxyphenyl)-6-(1-(8-isopropyl-8-azabicyclo[3.2.1]octan-3-yl)piperidin-4-yl)-8-methylimidazo[1,2-a]pyridine]	1200 nM	30 nM	> 50000 nM
COc1ccc(-c2cn3cc(C4CCN(C5CCN(C(C)C)CC5)CC4)ccc3n2)cc1OC [Example 11, 2-(3,4-dimethoxyphenyl)-6-(1′-isopropyl-[1,4′-bipiperidin]-4-yl)imidazo[1,2-a]pyridine]	5600 nM	77 nM	> 50000 nM
COc1ccc(-c2cn3cc(C4CCN(C5CC6CCC(C5)N6CC5CC5)CC4)cc(C)c3n2)cc1OC (single isomer, unassigned) [Example 21, 6-(1-(8-(cyclopropylmethyl)-8-azabicyclo[3.2.1]octan-3-yl)piperidin-4-yl)-2-(3,4-dimethoxyphenyl)-8-methylimidazo[1,2-a]pyridine]	3000 nM	126 nM	> 50000 nM
CS(=O)(=O)c1ccc(-c2cn3cc(C4CCN(C5CC6CCC(C5)N6C5CCC5)CC4)cc(F)c3n2)cc1 (single isomer, unassigned) [Example 118, 6-(1-(8-cyclobutyl-8-azabicyclo[3.2.1]octan-3-yl)piperidin-4-yl)-8-fluoro-2-(4-(methylsulfonyl)phenyl)imidazo[1,2-a]pyridine]	1100 nM	21 nM	17100 nM
COc1ccc(-c2cn3cc(C4CCN(C5CC6CCC(C5)N6CC5CC5)CC4)cc(C)c3n2)cc1OC (single isomer, unassigned) [Example 20, 6-(1-(8-(cyclopropylmethyl)-8-azabicyclo[3.2.1]octan-3-yl)piperidin-4-yl)-2-(3,4-dimethoxyphenyl)-8-methylimidazo[1,2-a]pyridine]	1500 nM	23 nM	> 50000 nM
Cc1cc(C2CCN(C3CC4CCC(C3)N4CC3CC3)CC2)cn2cc(-c3ccc(S(C)(=O)=O)cc3)nc12 (single isomer, unassigned) [Example 87, 6-(1-(8-(cyclopropylmethyl)-8-azabicyclo[3.2.1]octan-3-yl)piperidin-4-yl)-8-methyl-2-(4-(methylsulfonyl)phenyl) imidazo[1,2-a]pyridine]	4400 nM	28 nM	> 25000 nM
COc1ccc(-c2nc3cc(C4CCN(C5CCN(C(C)C)CC5)CC4)ccn3n2)cc1OC [Example 60, 2-(3,4-dimethoxyphenyl)-7-(1′-isopropyl-[1,4′-bipiperidin]-4-yl)-[1,2,4]triazolo[1,5-a]pyridine]	29000 nM	1100 nM	> 50000 nM
Cc1cc(C2CCN(C3CCN(CC4CC4)CC3)CC2)cn2cc(-c3ccc(S(C)(=O)=O)cc3)nc12 [Example 92, 6-(1′-(cyclopropylmethyl)-[1,4′-bipiperidin]-4-yl)-8-methyl-2-(4-(methylsulfonyl)phenyl)imidazo[1,2-a]pyridine]	3500 nM	50 nM	> 25000 nM
